Holding throughout (format): cell-based
The subject of assay [1] is P. falciparum K1 (CQ-resistant). Kind of assay: HRP2-based ELISA growth inhibition, K1 strain. The conditions noted are these: Plasmodium falciparum, unmarked values: HRP II ELISA, 72 h. The text has this:
(§1) Highly sensitive HRP2-based ELISA and [^3H]-hypoxanthine incorporation assay were used as markers for inhibition of parasite growth as previously described (12, 14). A solvent control and a chloroquine (CQ) control were included in the HRP2-based ELISA. CQ, lumefantrine and artesunate were included as controls in the [^3H]-hypoxanthine assay series.
(§2) The assay protocol of the HRP2-based ELISA is described in more detail in the following paragraphs.
(§3) The P. falciparum clones were maintained in continuous culture as described previously (10). Briefly, 3D7 (CQ-sensitive), NF54, and K1 (CQ-resistant) P. falciparum clones were obtained from MR4/American Type Culture Collection, Manassas, Va., USA under the accession numbers MR4-102 (3D7), MRA-1000 (NF54), and MR4-159 (K1). P. falciparum cultures were maintained in 25 cm^2 flasks. Parasites were cultured in RPMI 1640 (Sigma Aldrich, Austria) medium containing 10% human serum at a hematocrit of 5% (blood group 0 negative) at 37° C. under an atmosphere of 5% CO2, 5% O2 and 90% N2. The medium was changed every 24 to 48 hours. The culture was diluted and fresh erythrocytes were added whenever the parasite density reached >1%.
(§4) Stock solutions of compounds of formula I were prepared in DMSO (10 mg/mL). Stock concentrations of chloroquine and lumefantrine always remained 1 mg/mL and were prepared in 70% ethanol. Coating of culture plates with compounds of formula I and controls: 96 wells culture plates were coated as described previously (11). Working standards were prepared by diluting the stock solutions in RPMI1640 to obtain the desired final concentrations. Serial three-fold dilutions (seven concentrations and one drug-free control well) of the drugs (25 μL/well) were dispensed in duplicate into standard 96-well micro culture plates. Chloroquine was included as a reference drug in all experiments.
(§5) After reaching a parasitemia of 5% or higher, 5 mL of cell medium mixture were centrifuged at 700 g for 5 minutes at room temperature (RT). Packed red cells were resuspended in 3 mL of 5% D-sorbitol (Sigma Aldrich, Austria) in water at RT and immediately centrifuged again at 700 g for 5 minutes at RT followed by three washes with 3 mL of RPMI1640 medium. […].
(§6) Samples were diluted with RPMI1640 medium containing 0.5% Albumax II (GIBCO, Invitrogen, Vienna, Austria) by adding uninfected red blood cells to 1.5% hematocrit and 0.05% parasitemia. 150 μL of this cell medium mixture was then added to each well of 96-well plates precoated with test compounds and incubated at 37° C. for 72 hours in a gas mixture containing 5% CO2, 5% O2, and 90% N2. After 72 hours the plates were frozen at −20° C. until the histidine rich protein II assay (23).
(§7) A highly sensitive HRPII ELISA was used based on two commercially available monoclonal antibodies (Immunology Consultants Laboratory, Inc., Newberg, Oreg.) directed against P. falciparum-specific HRPII: MPFM-55A, an immunoglobulin M antibody served as the primary capture antibody and HRP-conjugated MPFG-55P (Immunology Consultants Laboratory, Inc., Newberg, Oreg.) as secondary antibody. The ELISA was employed to assess growth inhibition as a measure of drug susceptibility as previously described. Optical density was measured at 450 nm using a standard ELISA plate reader (12-13).
(§8) Hyperbolic concentration response curves were fitted to the data points by nonlinear least squares using the solver add-in of the Excel software.
(§9) Indicated in TABLE 2 are the IC50 [μM] values for growth inhibition of the 3D7 (NF54) and K1 strains of P. falciparum for the compounds of formula I indicated with their formula numbers in TABLE 2. Unmarked IC50 values for K1 and 3D7 strains of P. falciparum have been determined by HRP II enzyme linked immunosorbent assay (ELISA) as described above. […]
For orientation: In an ELISA, binding on a coated surface is turned into a signal by an enzyme label.

Assay [2] concerns P. falciparum 3D7 (CQ-sensitive). Kind of assay: HRP2-based ELISA growth inhibition, 3D7 strain. The following applies: Plasmodium falciparum, unmarked values: HRP II ELISA, 72 h.
Text: as §1, §2, §3, §4, §5, §6, §7, §8, §9

Assay [3] concerns P. falciparum NF54 (CQ sensitive). Kind of assay: [3H]-hypoxanthine incorporation assay, NF54 strain. The following applies: Plasmodium falciparum, values marked with asterisk: [3H]-hypoxanthine assay, read-out: IC50 growth inhibition NF54*.
The subject of assay [4] is P. falciparum K1 (CQ-resistant). As to the kind of experiment: [3H]-hypoxanthine incorporation assay, K1 strain. The conditions noted are these: Plasmodium falciparum, values marked with asterisk: [3H]-hypoxanthine assay, read-out: IC50 growth inhibition K1 (*).

For `CC(NCC(O)COc1ccccc1C(=O)NCc1ccccc1)C12CC3CC(CC(C3)C1)C2` (stereo not shown) [Compound I-28, 2-[3-(1-Adamantan-1-yl-ethylamino)-2-hydroxy-propoxy]-N-benzyl-benzamide], the IC50 (usually the concentration at which inhibition is half-maximal) in assay [1] came out at 0.09 µM; in assay [2], 0.309 µM.

Take `CN(CC(O)COc1ccccc1C(=O)NCc1ccc(C(F)(F)F)cc1)C1C2CC3CC(C2)CC1C3` (stereo not shown) [Compound I-16, 2-[3-(Adamantan-2-yl-methyl-amino)-2-hydroxy-propoxy]-N-(4-trifluoromethyl-benzyl)-benzamide]: the half-maximal inhibitory concentration (IC50) in assay [1] was determined as 0.054 µM; in assay [2], 0.131 µM.

For the compound `Cc1ccc(NC(=O)c2ccccc2OCC(O)CNC(C)C23CC4CC(CC(C4)C2)C3)cc1` (stereo not shown) [Compound I-41, 2-[3-(1-Adamantan-1-yl-ethylamino)-2-hydroxy-propoxy]-N-p-tolyl-benzamide], the results for the IC50 in assay [1] and in assay [2] were 0.012 µM and 0.07 µM, respectively.

`O=C(NCc1ccccc1)c1ccccc1OCC(O)CNCCCc1ccccc1` (stereo not shown) [Compound I-50, N-Benzyl-2-[2-hydroxy-3-(3-phenyl-propylamino)-propoxy]-benzamide]: the values for the 50% inhibitory concentration (IC50) in assay [1] and in assay [2] were 0.403 µM and 1.75 µM, respectively.

Turning to `CN(CC(O)COc1ccccc1C(=O)NCc1ccccc1)C1C2CC3CC(C2)CC1C3` (stereo not shown) [Compound I-13, 2-[3-(Adamantan-2-yl-methyl-amino)-2-hydroxy-propoxy]-N-benzyl-benzamide], the 50% inhibitory concentration (IC50) turned out to be 0.168 µM in assay [1] and 0.457 µM in assay [2].

With `CCCNCC(O)COc1ccccc1C(=O)Nc1ccc(C)cc1` (stereo not shown) [Compound I-54, 2-(2-Hydroxy-3-propylamino-propoxy)-N-p-tolyl-benzamide], the IC50 came out at 0.085 µM in assay [1] and 0.276 µM in assay [2].

Take `COc1ccccc1CNC(=O)c1ccccc1OCC(O)CNC12CC3CC(CC(C3)C1)C2` (stereo not shown) [Compound I-2, 2-[3-(Adamantan-1-ylamino)-2-hydroxy-propoxy]-N-(2-methoxy-benzyl)-benzamide]: the values for the concentration for half-maximal inhibition (IC50) in assay [1] and in assay [2] were 0.435 µM and 0.68 µM, respectively.

On to `COc1ccccc1CN(CC(O)COc1ccccc1C(=O)NCc1ccccc1)C1C2CC3CC(C2)CC1C3` (stereo not shown) [Compound I-21, 2-{3-[Adamantan-2-yl-(2-methoxy-benzyl)-amino]-2-hydroxy-propoxy}-N-benzyl-benzamide], for which the concentration for half-maximal inhibition (IC50) in assay [1] turned out to be 0.613 µM; in assay [2], 4.12 µM.

On to `CN(CC(O)COc1ccccc1C(=O)NCc1ccc(C(C)(C)C)cc1)C1C2CC3CC(C2)CC1C3` (stereo not shown) [Compound I-64, 2-[3-(Adamantan-2-yl-methyl-amino)-2-hydroxy-propoxy]-N-(4-tert-butyl-benzyl)-benzamide], for which the IC50 in assay [1] was determined as 0.397 µM; in assay [2], 1.49 µM.

On to `CCCN(CC(O)COc1ccccc1C(=O)NCc1ccccc1OC)C1C2CC3CC(C2)CC1C3` (stereo not shown) [Compound I-18, 2-[3-(Adamantan-2-yl-propyl-amino)-2-hydroxy-propoxy]-N-(2-methoxy-benzyl)-benzamide], for which the IC50 in assay [1] is 0.349 µM; in assay [2], 1.57 µM.

As to `O=C(Nc1cccc(C(F)(F)F)c1)c1cc(Cl)ccc1OCC(O)CN1CCN(C(c2ccccc2)c2ccccc2)CC1` (stereo not shown) [Compound I-85, 2-[3-(4-Benzhydryl-piperazin-1-yl)-2-hydroxy-propoxy]-5-chloro-N-(3-trifluoromethyl-phenyl)-benzamide], the IC50 stood at 0.0057 µM in assay [3] and 0.0012 µM in assay [4].

`CC12CC3CC(C)(C1)CC(NCC(O)COc1ccccc1C(=O)Nc1ccc(F)cc1)(C3)C2` (stereo not shown) [Compound I-4, 2-[3-(3,5-Dimethyl-adamantan-1-ylamino)-2-hydroxy-propoxy]-N-(4-fluoro-phenyl)-benzamide]: the half-inhibitory concentration (IC50) in assay [3] amounted to 0.038 µM; in assay [4] it was 0.008 µM.

Regarding `O=C(Nc1cccc(C(F)(F)F)c1)c1ccccc1OCC(O)CN1CCC(c2ccccc2)CC1` (stereo not shown) [Compound I-67, 2-[2-Hydroxy-3-(4-phenyl-piperidin-1-yl)-propoxy]-N-(3-trifluoromethyl-phenyl)-benzamide], the IC50 came to 0.0088 µM in assay [3] and 0.0022 µM in assay [4].

On to `CN(CC(O)COc1ccccc1C(=O)NCc1ccc(C2(C(F)(F)F)N=N2)cc1)C1C2CC3CC(C2)CC1C3` (stereo not shown) [Compound I-43, 2-[3-(Adamantan-2-yl-methyl-amino)-2-hydroxy-propoxy]-N-[4-(3-trifluoromethyl-3H-diazirin-3-yl)-benzyl]-benzamide], for which the half-maximal inhibitory concentration (IC50) in assay [3] was determined as 0.119 µM; in assay [4] it was 0.028 µM.

Turning to `C=CCNCC(O)COc1ccccc1C(=O)Nc1ccccc1CC=C` (stereo not shown) [Compound I-65, 2-(3-Allylamino-2-hydroxy-propoxy)-N-(2-allyl-phenyl)-benzamide], the IC50 in assay [3] was found to be 2.55 µM; in assay [4], 0.488 µM.

In the case of `O=C(Nc1ccc2ccccc2c1)c1ccccc1OCC(O)CNCC12CC3CC(CC(C3)C1)C2` (stereo not shown) [Compound I-71, 2-{3-[(Adamantan-1-ylmethyl)-amino]-2-hydroxy-propoxy}-N-naphthalen-2-yl-benzamide], the results for the IC50 in assay [3] and in assay [4] were 0.0062 µM and 0.0018 µM, respectively.

Take `O=C(Nc1ccc(F)cc1)c1ccccc1OCC(O)CN1CCC(c2ccccc2)CC1` (stereo not shown) [Compound I-46, N-(4-Fluoro-phenyl)-2-[2-hydroxy-3-(4-phenyl-piperidin-1-yl)-propoxy]-benzamide]: the 50% inhibitory concentration (IC50) in assay [3] turned out to be 0.026 µM; in assay [4] it was 0.009 µM.

Take `O=C(Nc1cccc(C(F)(F)F)c1)c1ccccc1OCC(O)CN1CCC(Cc2ccccc2)CC1` (stereo not shown) [Compound I-68, 2-[3-(4-Benzyl-piperidin-1-yl)-2-hydroxy-propoxy]-N-(3-trifluoromethyl-phenyl)-benzamide]: the IC50 in assay [3] came out at 0.0086 µM; in assay [4], 0.0023 µM.

For the compound `CC(C)CCNC(=O)c1ccccc1OCC(O)CNCC12CC3CC(CC(C3)C1)C2` (stereo not shown) [Compound I-24, 2-{3-[(Adamantan-1-ylmethyl)-amino]-2-hydroxy-propoxy}-N-(3-methyl-butyl)-benzamide], the IC50 stood at 0.134 µM in assay [3] and 0.036 µM in assay [4].

On to `O=C(NCc1ccc(C(F)(F)F)cc1)c1ccccc1OCC(O)CNCC12CC3CC(CC(C3)C1)C2` (stereo not shown) [Compound I-30, 2-{3-[(Adamantan-1-ylmethyl)-amino]-2-hydroxy-propoxy}-N-(4-trifluoromethyl-benzyl)-benzamide], for which the results for the half-inhibitory concentration (IC50) in assay [3] and in assay [4] were 0.057 µM and 0.018 µM, respectively.

In the case of `O=C(Nc1ccc(Br)cc1)c1ccccc1OCC(O)CNC12CC3CC(CC(C3)C1)C2` (stereo not shown) [Compound I-75, 2-[3-(Adamantan-1-ylamino)-2-hydroxy-propoxy]-N-(4-bromo-phenyl)-benzamide], the concentration for half-maximal inhibition (IC50) in assay [3] was found to be 0.028 µM; in assay [4], 0.0071 µM.

With `O=C(Nc1ccc(F)cc1)c1ccccc1OCC(O)CN1CCN(C23CC4CC(CC(C4)C2)C3)CC1` (stereo not shown) [Compound I-5, 2-[3-(4-Adamantan-1-yl-piperazin-1-yl)-2-hydroxy-propoxy]-N-(4-fluoro-phenyl)-benzamide], the half-inhibitory concentration (IC50) stood at 0.059 µM in assay [3] and 0.012 µM in assay [4].

Regarding `O=C(Nc1ccc(F)cc1)c1cc(Cl)ccc1OCC(O)CNCC12CC3CC(CC(C3)C1)C2` (stereo not shown) [Compound I-66, 2-{3-[(Adamantan-1-ylmethyl)-amino]-2-hydroxy-pro-poxy}-5-chloro-N-(4-fluoro-phenyl)-benzamide], the IC50 in assay [3] came out at 0.0024 µM; in assay [4], 0.0006 µM.

The record behind these values is US20150141437A1, “AMIDOPHENOXYPROPANOLAMINES” (MEDIZINISCHE UNIVERSITÄT WIEN, priority 2012, published 2015).
